Tests used:
[1] = test system: Vaccinia VP13; experiment: microbe, parasite or virus in culture; type: cell-based, Vaccinia virus; details: for EC50: Orthopoxvirus vaccinia, HFF-1, 96 h
[2] = test system: Monkeypox virus; experiment: microbe, parasite or virus in culture; type: cell-based; details: for EC50: Monkeypox virus, HFF-1, 96 h
[3] = test system: Cowpox virus; experiment: microbe, parasite or virus in culture; type: cell-based; details: for EC50: Cowpox virus, HFF-1, 96 h
[4] = test system: Smallpox virus; experiment: microbe, parasite or virus in culture; type: cell-based; details: for EC50: Variola virus, HFF-1, 96 h
[5] = in vitro; details: human

[N-]=[N+]=NC1(CO)OC(n2ccc(N)nc2=O)C(F)C1O (centres unmarked) [Compound 1, Azvudine]
activity to inhibit vaccinia virus (in words) [1]: significant inhibitory effect
EC50 [1]: 570 nM
activity to inhibit monkeypox virus (in words) [2]: significant inhibitory effect
EC50 [2]: 320 nM
activity to inhibit cowpox virus (in words) [3]: significant inhibitory effect
EC50 [3]: 750 nM
activity to inhibit smallpox virus (in words) [4]: significant inhibitory effect
EC50 [4]: 1200 nM
CC50 [5]: > 10000 nM

O=C(NN1C(=O)[C@@H]2[C@@H]3C=C[C@@H]([C@H]4C[C@@H]34)[C@@H]2C1=O)c1ccc(C(F)(F)F)cc1 [ST-246, reference compound]
EC50 [1]: 40 nM
EC50 [2]: 30 nM
EC50 [3]: 50 nM
EC50 [4]: 70 nM
CC50 [5]: > 100000 nM

— US20260137710A1, “PHARMACEUTICAL USE OF NUCLEOSIDE COMPOUND” (priority 2022, published 2026)
